The values below come from patent publication US10188108B2, “Fused bicyclic heterocycle derivatives as pesticides” (BAYER CROPSCIENCE AKTIENGESELLSCHAFT, priority 2015, dated 2019).

Data set [1] can be described thus: log P by HPLC on a reversed-phase column (C 18), EEC Directive 79/831 Annex V.A8. The format is physicochemical. The following applies: for LOGP_HCOOH: acidic range, pH 2.7, 0.1% aqueous formic acid/acetonitrile; for LOGP_HCOOH / LOGP_NEUTRAL: 55° C.; for LOGP_NEUTRAL: pH 7.8, 0.001 molar aqueous ammonium hydrogencarbonate/acetonitrile. As to the method:
The log P values are measured according to EEC Directive 79/831 Annex V.A8 by HPLC (high-performance liquid chromatography) on a reversed-phase column (C 18). Temperature: 55° C.
The LC-MS determination in the acidic range is effected at pH 2.7 using 0.1% aqueous formic acid and acetonitrile (contains 0.1% formic acid) as eluents; linear gradient from 10% acetonitrile to 95% acetonitrile. Called log P (HCOOH) in the table.
LC-MS determination in the neutral range is effected at pH 7.8 with 0.001 molar aqueous ammonium hydrogencarbonate solution and acetonitrile as eluents; linear gradient from 10% acetonitrile to 95% acetonitrile. Called log P (neutral) in the table.
Calibration is carried out using unbranched alkan-2-ones (having 3 to 16 carbon atoms) with known log P values (log P values determined on the basis of the retention times by linear interpolation between two successive alkanones).

For another data set, the system named is Lucilia cuprina. The experiment in a line: Lucilia cuprina test. The data set is classed as in vivo. The conditions noted are these: 100 ppm, after 2 days, L1 larvae. On the procedure:
• Solvent: dimethyl sulphoxide To produce a suitable preparation of active compound, 10 mg of active compound are mixed with 0.5 ml of dimethyl sulphoxide, and the concentrate is diluted with water to the desired concentration. About 20 L1 larvae of the Australian sheep blowfly (Lucilia cuprina) are transferred into a test vessel containing minced horsemeat and the active compound preparation of the desired concentration. After 2 days, the kill in % is determined. 100% means that all the larvae have been killed; 0% means that no larvae have been killed.

For the next data set, the system named is Spodoptera frugiperda. Put plainly: Spodoptera frugiperda - spray test. The data set is classed as in vivo. The conditions noted are these: 500 g/ha, after 7 days, caterpillars on maize leaf discs. As to the method:
(§1) • Solvent: 78.0 parts by weight of acetone • 1.5 parts by weight of dimethylformamide • Emulsifier: alkylaryl polyglycol ether
(§2) To produce a suitable preparation of active compound, 1 part by weight of active compound is dissolved using the stated parts by weight of solvent and made up with water containing an emulsifier concentration of 1000 ppm until the desired concentration is attained. To produce further test concentrations, the preparation is diluted with emulsifier-containing water.
Leaf discs of maize (Zea mays) are sprayed with an active compound preparation of the desired concentration and, after drying, populated with caterpillars of the armyworm (Spodoptera frugiperda).
After 7 days, the efficacy in % is determined. 100% means that all the caterpillars have been killed; 0% means that no caterpillars have been killed.

The test system of the next data set is Boophilus microplus. The experiment in a line: Boophilus microplus - injection test. The conditions noted are these: 20 μg/animal injected, engorged adult female cattle ticks, laying of fertile eggs after 7 days. The data set is classed as in vivo. As to the method:
• Solvent: dimethyl sulphoxide
To produce a suitable preparation of active compound, 10 mg of active compound are mixed with 0.5 ml of solvent and the concentrate is diluted with solvent to the desired concentration.
1 μl of the active compound solution is injected into the abdomen of 5 engorged adult female cattle ticks (Boophilus microplus). The animals are transferred into dishes and kept in a climate-controlled room.
Efficacy is assessed after 7 days by laying of fertile eggs. Eggs which are not visibly fertile are stored in a climate-controlled cabinet until the larvae hatch after about 42 days. An efficacy of 100% means that none of the ticks has laid any fertile eggs; 0% means that all the eggs are fertile.

Data set [2] has as its system Ctenocephalides felis. Put plainly: Ctenocephalides felis - in vitro contact tests with adult cat fleas. The format is in vivo. The conditions noted are these: 5 μg/cm^2 (=500 g/ha), after 48 h, adult cat fleas dead or moribund. As to the method:
For the coating of the test tubes, 9 mg of active compound are first dissolved in 1 ml of acetone p.a. and then diluted to the desired concentration with acetone p.a. 250 μl of the solution are distributed homogeneously on the inner walls and the base of a 25 ml test tube by turning and rocking on an orbital shaker (rocking rotation at 30 rpm for 2 h). With 900 ppm active compound solution and internal surface 44.7 cm^2, given homogeneous distribution, an area-based dose of 5 μg/cm^2 is achieved.
After the solvent has evaporated off, the tubes are populated with 5-10 adult cat fleas (Ctenocephalides felis), sealed with a perforated plastic lid and incubated in a horizontal position at room temperature and ambient humidity. After 48 h, efficacy is determined. To this end, the test tubes are stood upright and the fleas are knocked to the base of the tube. Fleas which remain motionless at the base or move in an uncoordinated manner are considered to be dead or moribund.
100% efficacy means that all the fleas were dead or moribund. 0% efficacy means that no fleas were harmed.

The subject of the next data set is Phaedon cochleariae. Put plainly: Phaedon cochleariae - spray test. The data set is classed as in vivo. The conditions noted are these: 500 g/ha, after 7 days, larvae on Chinese cabbage leaf discs. On the procedure:
as §1, §2
After 7 days, the efficacy in % is determined. 100% means that all the beetle larvae have been killed; 0% means that no beetle larvae have been killed.

Data set [3] concerns Ctenocephalides felis. The experiment in a line: Ctenocephalides felis - oral test. The following applies: 100 ppm in citrated cattle blood, after 2 days, adult cat fleas. The format is in vivo. On the procedure: • Solvent: dimethyl sulphoxide To produce a suitable preparation of active compound, 10 mg of active compound are mixed with 0.5 ml of dimethyl sulphoxide. Dilution with citrated cattle blood gives the desired concentration. About 20 unfed adult cat fleas (Ctenocephalides felis) are placed into a chamber which is closed at the top and bottom with gauze. A metal cylinder whose bottom end is closed with parafilm is placed onto the chamber. The cylinder contains the blood/active compound preparation, which can be imbibed by the fleas through the parafilm membrane. After 2 days, the kill in % is determined. 100% means that all of the fleas have been killed; 0% means that none of the fleas have been killed.

In another data set the test system is Musca domestica. The experiment in a line: Musca domestica test. The data set is classed as in vivo. The following applies: after 2 days, adult houseflies. As to the method: • Solvent: dimethyl sulphoxide To produce a suitable preparation of active compound, 10 mg of active compound are mixed with 0.5 ml of dimethyl sulphoxide, and the concentrate is diluted with water to the desired concentration. Vessels containing a sponge treated with sugar solution and the active compound preparation of the desired concentration are populated with 10 adult houseflies (Musca domestica). After 2 days, the kill in % is determined. 100% means that all of the flies have been killed; 0% means that none of the flies have been killed.

A further data set has as its system Meloidogyne incognita. The experiment in a line: Meloidogyne incognita test. The data set is classed as in vivo. The following applies: 20 ppm, after 14 days, formation of galls on lettuce roots. As to the method:
• Solvent: 125.0 parts by weight of acetone To produce a suitable preparation of active compound, 1 part by weight of active compound is mixed with the stated amount of solvent and the concentrate is diluted with water to the desired concentration. Vessels are filled with sand, active compound solution, an egg/larvae suspension of the southern root-knot nematode (Meloidogyne incognita) and lettuce seeds. The lettuce seeds germinate and the plants develop. The galls develop on the roots. After 14 days, the nematicidal efficacy in % is determined by the formation of galls. 100% means that no galls were found; 0% means that the number of galls on the treated plants corresponds to the untreated control.

Another data set has as its system Myzus persicae. Put plainly: Myzus persicae - spray test (Chinese cabbage leaf discs). The data set is classed as in vivo. The conditions noted are these: 500 g/ha, after 5-6 days. On the procedure: • Solvent: 78 parts by weight of acetone • 1.5 parts by weight of dimethylformamide • Emulsifier: alkylaryl polyglycol ether
as §2
Discs of Chinese cabbage leaves (Brassica pekinensis) infested by all stages of the green peach aphid (Myzus persicae) are sprayed with an active compound preparation of the desired concentration.
After 5-6 days, the efficacy in % is determined. 100% means that all the aphids have been killed; 0% means that no aphids have been killed.

The next data set deals with Rhipicephalus sanguineus. Put plainly: Rhipicephalus sanguineus - in vitro contact tests with adult brown dog ticks. The data set is classed as in vivo. The conditions noted are these: 5 μg/cm^2 (=500 g/ha), after 48 h, adult dog ticks dead or moribund. On the procedure:
For the coating of the test tubes, 9 mg of active compound are first dissolved in 1 ml of acetone p.a. and 20 then diluted to the desired concentration with acetone p.a. 250 μl of the solution are distributed homogeneously on the inner walls and the base of a 25 ml test tube by turning and rocking on an orbital shaker (rocking rotation at 30 rpm for 2 h). With 900 ppm active compound solution and internal surface 44.7 cm^2, given homogeneous distribution, an area-based dose of 5 μg/cm^2 is achieved.
After the solvent has evaporated off, the tubes are populated with 5-10 adult dog ticks (Rhipicephalus sanguineus), sealed with a perforated plastic lid and incubated in a horizontal position in the dark at room temperature and ambient humidity. After 48 h, efficacy is determined. To this end, the ticks are knocked to the base of the tube and incubated on a hotplate at 45-50° C. for not more than 5 min. Ticks which remain motionless on the base or move in such an uncoordinated manner that they are unable to deliberately avoid the heat by climbing upwards are considered to be dead or moribund.
An efficacy of 100% means that all the ticks were dead or moribund. 0% efficacy means that none of the ticks were harmed.

A further data set deals with Haemonchus contortus. The experiment in a line: Haemonchus contortus test. The data set is classed as in vivo. The conditions noted are these: 20 ppm, after 5 days, larvae. As to the method:
• Solvent: Dimethyl Sulphoxide To produce a suitable preparation of active compound, 10 mg of active compound are mixed with 0.5 ml of dimethyl sulphoxide and the concentrate is diluted with “Ringer's solution” to the desired concentration. Vessels containing the active compound preparation of the desired concentration are populated with about 40 larvae of the red stomach worm (Haemonchus contortus). After 5 days, the kill in % is determined. 100% means that all the larvae have been killed; 0% means that none of the larvae have been killed.

The test system of the next data set is Tetranychus urticae. Put plainly: Tetranychus urticae - spray test, OP-resistant. The format is in vivo. The following applies: 500 g/ha, after 6 days, bean leaf discs. As to the method:
as §1, §2
Discs of bean leaves (Phaseolus vulgaris) infested with all stages of the greenhouse red spider mite (Tetranychus urticae) are sprayed with an active compound preparation of the desired concentration.
After 6 days, the efficacy in % is determined. 100% means that all the spider mites have been killed; 0% means that no spider mites have been killed.

Regarding `CC[S+]([O-])c1c(-c2nc3cc(C(F)(F)F)ncc3n2C)nc2cc(C(F)(F)F)ccn12` (stereo not shown) [Example I-18], in [1], the LOGP_HCOOH was 3.29. Further, the LOGP_NEUTRAL in data set [1] (neutral range) is 3.25. Moreover, the results for the “efficacy (kill)” value with Lucilia cuprina, in the data set with Ctenocephalides felis [3] and in the data set on Musca domestica (4 ppm) were 100%, 100% and 95%, respectively. Further, the efficacy amounted to 100% in the data set on Spodoptera frugiperda, 95% with Boophilus microplus, 100% with Ctenocephalides felis [2] and 100% in the data set with Phaedon cochleariae.

In data set [1], `CCSc1c(-c2nc3cc(C(F)(F)F)cnc3n2C)nc2ccccn12` [Example I-52] yielded an LOGP_HCOOH of 3.43. This compound displayed an LOGP_NEUTRAL in [1] (neutral range) of 3.39. In the data set with Phaedon cochleariae, this compound had an efficacy of 100%. This compound also displayed a nematicidal efficacy with Meloidogyne incognita of 100%.

In the case of `CCS(=O)(=O)c1c(-c2nc3cc(C(F)(F)F)ncc3n2C)nc2cc(C(F)(F)F)ccn12` [Example I-17], the LOGP_HCOOH in data set [1] turned out to be 3.00. The compound also registered an LOGP_NEUTRAL in [1] (neutral range) of 2.98. For the same compound, the figures for the “efficacy (kill)” value with Lucilia cuprina, in the data set on Ctenocephalides felis [3] and with Musca domestica (4 ppm) were 100%, 100% and 80%, respectively. Besides, the efficacy in the data set on Spodoptera frugiperda, with Ctenocephalides felis [2], with Myzus persicae and in the data set on Phaedon cochleariae was 100% throughout.

In data set [1], `CCS(=O)(=O)c1c(-c2nc3cc(C(F)(F)F)cnc3n2C)nc2ccccn12` [Example I-59] showed an LOGP_HCOOH of 2.58. Also, the LOGP_NEUTRAL in data set [1] (neutral range) was determined as 2.49. Further, the “efficacy (kill)” value in the data set with Lucilia cuprina worked out at 100%; in the data set with Haemonchus contortus it was 80%; with Ctenocephalides felis [3] it was 80%; in the data set with Musca domestica (20 ppm), 80%. Further, the efficacy in the data set on Spodoptera frugiperda was found to be 100%; in the data set on Rhipicephalus sanguineus, 100%; in the data set with Ctenocephalides felis [2], 100%; in the data set on Myzus persicae, 90%; with Phaedon cochleariae, 100%; in the data set on Tetranychus urticae, 90%.

Regarding `CCS(=O)(=O)c1c(-c2nc3cc(C(F)(F)F)ncc3n2C)nc2ccc(C(F)(F)F)cn12` [Example I-6], in [1], the LOGP_HCOOH amounted to 3.09. Also, in data set [1] (neutral range), the LOGP_NEUTRAL worked out at 3.06. The figures for the “efficacy (kill)” value in the data set on Lucilia cuprina, in the data set on Ctenocephalides felis [3] and with Musca domestica (20 ppm) were 100%, 100% and 90%, respectively. The efficacy in the data set with Spodoptera frugiperda worked out at 100%; in the data set on Ctenocephalides felis [2] it was 100%; with Myzus persicae, 90%; in the data set with Phaedon cochleariae, 100%.

Consider `CCS(=O)(=O)c1c(-c2nc3cc(C(F)(F)F)ncc3n2C)nc2ccccn12` [Example I-1, 2-(3-Ethylsulphonylimidazo[1,2-a]pyridin-2-yl)-3-methyl-6-(trifluoromethyl)imidazo[4,5-c]pyridine], for which the LOGP_HCOOH in data set [1] stood at 2.08. This compound displayed an LOGP_NEUTRAL in data set [1] (neutral range) of 2.05. Moreover, in data set [1] (reversed-phase HPLC column (C 18), neutral range, pH 7.8, value in preparation example text, read-out: log P (neutral)), the chromatographic logP is 2.07. The “efficacy (kill)” value in the data set with Lucilia cuprina worked out at 100%; with Ctenocephalides felis [3], 98%; in the data set on Musca domestica (4 ppm), 85%. For the same compound, the efficacy in the data set on Spodoptera frugiperda came out at 100%; in the data set with Ctenocephalides felis [2], 100%; in the data set with Myzus persicae it was 90%; in the data set with Phaedon cochleariae it was 83%.

`CCS(=O)(=O)c1c(-c2nc3cc(C(F)(F)F)ccc3n2C)nc2ccc(C)cn12` [Example I-35]: the LOGP_HCOOH in data set [1] turned out to be 2.98. The efficacy is given as 100% with Spodoptera frugiperda, 80% in the data set with Rhipicephalus sanguineus, 100% in the data set with Ctenocephalides felis [2] and 90% in the data set with Myzus persicae.
